Experimental data reported in BindingDB's records for doi:10.1021/jm00061a004 (1993).

What was measured:
CYP2D6 = CYP2D6 (Homo sapiens, UniProt P10635); test: Apparent inhibitory constant (Ki) for Bufuralol 1'-hydroxylation by human liver microsomes; conditions: probe bufuralol (1'-hydroxylation)
Cytochrome P450 2D6 [1] = target: T1, Cytochrome P450 2D6 (Homo sapiens, UniProt P10635); test: Inhibitory constant for cytochrome P450 2D6
Cytochrome P450 2D6 [2] = target: T1, Cytochrome P450 2D6; test: Inhibition of partially purified cytochrome P450 2D6 1'-hydroxybufuralol formation

T1 sequence (P10635 whole entry): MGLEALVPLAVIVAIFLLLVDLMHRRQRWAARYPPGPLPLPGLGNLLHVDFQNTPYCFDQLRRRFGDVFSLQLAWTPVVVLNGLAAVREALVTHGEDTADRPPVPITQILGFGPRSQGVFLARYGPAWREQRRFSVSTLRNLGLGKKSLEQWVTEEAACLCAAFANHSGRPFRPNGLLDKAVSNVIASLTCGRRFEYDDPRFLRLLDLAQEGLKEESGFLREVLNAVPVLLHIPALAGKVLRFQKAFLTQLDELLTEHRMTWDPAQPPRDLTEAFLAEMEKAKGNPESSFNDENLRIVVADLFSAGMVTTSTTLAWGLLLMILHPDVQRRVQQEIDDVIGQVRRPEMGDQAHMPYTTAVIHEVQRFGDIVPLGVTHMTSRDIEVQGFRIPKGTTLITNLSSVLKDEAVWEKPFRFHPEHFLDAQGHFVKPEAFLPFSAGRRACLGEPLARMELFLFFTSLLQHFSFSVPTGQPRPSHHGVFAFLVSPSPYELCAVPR
Chain of CYP2D6 (P10635 whole entry): as above

SMILES: COC(=O)C1=CO[C@@H](C)[C@H]2CN3CCc4c([nH]c5ccccc45)[C@@H]3C[C@H]12
- Ki (CYP2D6): 4.6 nM
- Ki (Cytochrome P450 2D6 [1]): 3.3 nM
- Ki (Cytochrome P450 2D6 [2]): 5.7 nM
